The values that follow are results of earlier work, collected in US8357679B2, “Hexafluoroisopropanol derivatives” (MSD Oss B.V., priority 2008, dated 2013).

The subject of series [1] is vascular smooth muscle cell. Conditions: in vitro.
The conditions of series [2]: in vivo.
The conditions of series [3]: in vivo. The source holds these as a separate data set.
A further series relates to tumours. Conditions: animal model of prostate cancer.

In the case of `O=S(=O)(c1ccccc1)N(CC(F)(F)F)c1ccc(C(O)(C(F)(F)F)C(F)(F)F)cc1` [Example T0901317, T0901317], the “vascular smooth muscle cell proliferation” value in series [1] was “inhibit”. The “neointima formation following balloon injury” value in series [2] is recorded as “inhibit”. In series [3], the “deposition of β-amyloid” value was “lower deposition of β-amyloid” and the memory result was “improve memory”. The progression of tumours entry in the series on tumours is reported as “delayed progression of tumours”.
